Source: patent US20240108607A1, “METHOD FOR MANUFACTURING NOVEL NITROGEN-CONTAINING COMPOUND OR SALT THEREOF AND MANUFACTURING INTERMEDIATE OF NOVEL NITROGEN-CONTAINING COMPOUND OR SALT THEREOF” (FUJIFILM Corporation, priority 2015, published 2024)
Like-named read-outs stand apart in the source and are kept apart here. Blank lines part the entries; values can stand above or below the compound they belong to.

Legend:
[1] = test system: U87MG cells; test: Radioactivity concentration of labeled compounds in tumor, U87MG subcutaneous transplantation; type: in vivo, mice (Balb/c AJcl-nu/nu); details: caudal vein, 111In 740 kBq, 64Cu and 90Y 500 kBq
Protocol: Test Example 3 Evaluation based on radioactivity concentration of ^111In-labeled compound, ^64Cu-labeled compound, and ^90Y-labeled compound in tumor
After 2 to 3 weeks, at a point in time when the tumor volume became 200 to 500 mm^3, 3 mice were sorted into one group at each point in time. The ^111In-labeled compound (740 k Bq) was administered into the caudal vein, the animals were sacrificed after a certain period of time, and the tumor was extracted. The weight of the tumor was measured, the radioactivity was measured using a gamma counter, and the radioactivity concentration in tumor (% ID/g) was calculated. For the ^64Cu-labeled compound (500 k Bq) and the ^90Y-labeled compound (500 k Bq), the radioactivity concentration in tumor (% ID/g) was calculated by the same method.

[2] = Radiochemical purity after standing at room temperature (reversed-phase TLC); type: physicochemical
Protocol: A indium [^111In] chloride solution (80 MBq, 100 μL) was added to a mixture of the compound A (8.5 μg) and a 0.2 mol/L sodium acetate buffer solution (pH 4.0) (1.5 mL). The solution was heated to 100° C. for 15 minutes and then left to stand for 5 minutes at room temperature, thereby obtaining [^111In]-(compound A). […] The radiochemical purity measured immediately after the compound was prepared and measured after 24 hours at room temperature was equal to or higher than 95%.
A yttrium [^90Y] chloride solution (700 MBq, 240 μL) was added to a mixture of the compound (79 μg), gentisic acid (1.8 mg), a 0.6 mol/L sodium acetate buffer solution (pH 4.0, 120 μL), and 0.4 mol/L aqueous sodium hydroxide solution (24 μL). The solution was heated to 100° C. for 20 minutes and then left to stand for 5 minutes at room temperature, thereby obtaining [90^Y]-(compound A). […] The radiochemical purity measured immediately after the compound was prepared and measured after 24 hours at room temperature was equal to or higher than 95%.
A copper [^64Cu] chloride solution (pH 5, 35 MBq, 55 μL) was added to a mixture of the compound A (5.8 μg) and 0.2 mol/L sodium acetate buffer solution (pH 4.0, 219 μL). The solution was heated to 100° C. for 15 minutes and left to stand for 5 minute at room temperature, thereby obtaining [^64Cu]-(compound A). […] The radiochemical purity measured immediately after the compound was prepared and measured after 22 hours at room temperature was equal to or higher than 90%.
A 0.2 mol/L sodium acetate buffer solution of Copper [^64Cu] chloride (pH 4.0) (40 MBq, 155 μL) was added to a mixture of the compound B (4.2 μg), gentisic acid (1 mg), and a 0.2 mol/L sodium acetate buffer solution (pH 4.0) (5.0 μL). The solution was heated to 100° C. for 15 minutes and left to stand for 5 minutes at room temperature, thereby obtaining [^64Cu]-(compound B). […] The radiochemical purity measured immediately after the compound was prepared and measured after 24 hours at room temperature was equal to or higher than 90%.
(§1) A gallium [^67Ga] chloride solution (200 MBq, 63 μL) was added to a mixed solution of the compound A (21 μg), gentisic acid (1.0 mg), a 0.2 mol/L sodium acetate buffer solution (pH 4.0, 730.7 μL), and 4.5 mol/L aqueous sodium hydroxide solution (6.3 μL). The solution was heated to 100° C. for 15 minutes and then left to stand for 5 minutes at room temperature, thereby obtaining [^67Ga]-(compound A).
A lutetium [^177Lu] chloride solution (666 MBq, 333 μL) dissolved in a 0.2 mol/L sodium acetate buffer solution (pH 4.0) was added to a mixed solution of the compound A (70.0 μg), gentisic acid (1.8 mg), and a 0.2 mol/L sodium acetate buffer solution (pH 4.0, 83.3 μL). The solution was heated to 100° C. for 15 minutes and then left to stand for 5 minutes at room temperature, thereby obtaining [^177Lu]-(compound A).
as §1, with “(40” for “(200”, “11.7” for “63”, “B (4.1” for “A (21”, “4.5, 147.13” for “4.0, 730.7”, “(1.17” for “(6.3”, “B).” for “A).”

[3] = test system: U87MG cells; details: 1 time; for Number of animals showing regression: 8 animals; for Inhibition rate: 16 days after administration; for Tumor volume 16 days after administration / Tumor volume At the beginning of administration: Mean ± SD
Protocol: Test Example 7 Therapeutic Test on U87MG Subcutaneous Transplantation Model Using [^90Y]-(Compound A)
1×10^7 U87MG cells were transplanted into the subcutaneous space of the right flank of Balb/c Slc-nu/nu (males, 6-week-old, Japan SLC. Inc). After 2 weeks, the mice with a tumor having a volume of 100 to 500 mm^3 were grouped. A phosphate buffered saline (PBS) or [^90Y]-(compound A) was administered into the caudal vein, and the tumor volume was measured. At a point in time when the tumor volume of the mice of the PBS group exceeded 2,000 mm^3 which is a humane endpoint, the antitumor activity was evaluated.

[4] = test system: T98G cell (human glioblastoma); test: Therapeutic test on T98G subcutaneous transplantation model; type: in vivo, mice (Balb/c Slc-nu/nu); details: 1 time; for Number of animals showing regression: 6 animals; for Inhibition rate: 13 days after administration; for Tumor volume 13 days after administration / Tumor volume At the beginning of administration: Mean ± SD
Protocol: Test Example 8 Therapeutic Test on T98G Subcutaneous Transplantation Model Using [^90Y]-(Compound A)
After 77 days, at a point in time when the tumor volume reached 300 to 1,200 mm^3, the mice were grouped. […] The evaluation values were calculated by the same method as in Test Example 7, and the antitumor activity was evaluated.

[5] = Absorbed dose in a human being simulated with OLINDA/EXM 1.0 from monkey organ distribution
Protocol: (§2) Blood was collected from a crab-eating macaque over time, and by using [^111In]-(compound A), from the radioactivity concentration in the blood, kinetic parameters of the compound in blood were calculated by OLINDA/EXM 1.0. Furthermore, by using [^111In]-(compound A), from the organ distribution obtained by imaging, the absorbed dose of each organ obtained in a case where the compound is administered to a human being was calculated using OLINDA/EXM 1.0. [^111In]-(compound A) (98 MBq/9.3 μg) was administered to a crab-eating macaque (Hamri Co., Ltd., males, 3-year-old, 3.4 kg) under anesthesia. After the administration, blood was collected over time, and imaging was performed using a gamma camera. The blood was collected 10, 30, and 60 minutes after the administration and 2, 4, 5, 6, 24, 48, 72, and 144 hours after the administration. Regarding the imaging, after 1, 2, 4, 6, 24, 48, 72, and 144 hours, planar imaging was performed using a gamma camera (Symbia, Siemens Healthcare GmbH). Regarding the anesthesia, the animal was anesthetized with ketamine at 20 mg/kg before the administration of [^111In]-(compound A) and kept anesthetized until the end of imaging, which was continued for 6 hours after the administration, by inhalation anesthesia (isofluran 2 to 3%, 5 to 8 L/min). After 24 hours, ketamine (20 mg/kg) and xylazine (2 mg/kg) were administered to perform blood collection and imaging.
(§3) Furthermore, by using exposure dose analysis software OLINDA/EXM 1.0, the absorbed dose in a human being was simulated using each of the labeled compounds, and the results are shown below.

[6] = Monkey blood kinetics and planar imaging; type: in vivo, crab-eating macaque
Protocol: Test Example 9 Imaging of Monkey by Using [^111In]-(Compound A)
as §2
The kinetic parameters in blood are also shown below.
as §3

SMILES: Cc1cc(OCCCC(=O)NCCNC(=O)[C@H](CS(=O)(=O)O)NC(=O)CC[C@H](C(=O)O)N2CCN(CC(=O)[O-])CCN(CC(=O)[O-])CC2)cc(C)c1S(=O)(=O)N[C@@H](CNC(=O)CCCCc1ccc2c(n1)NCCC2)C(=O)O.[64Cu+2] [[^64Cu]-(compound B)]
- Radioactivity concentration in tumor After 4 hours [1]: 11.19 % ID/g
- Radioactivity concentration in tumor After 24 hours [1]: 8.53 % ID/g
- radiochemical purity immediately after preparation and after 24 hours at room temperature [2]: ≥ 90%

SMILES: Cc1cc(OCCCC(=O)NCCNC(=O)[C@H](CS(=O)(=O)O)NC(=O)CN2CCN(CC(=O)[O-])CCN(CC(=O)[O-])CCN(CC(=O)[O-])CC2)cc(C)c1S(=O)(=O)N[C@@H](CNC(=O)CCCCc1ccc2c(n1)NCCC2)C(=O)O.[67Ga+3] [[^67Ga]-(compound A)]
- radiochemical purity immediately after preparation and after 3.5 hours at room temperature ([2]; 3.5 hours): ≥ 95%

SMILES: Cc1cc(OCCCC(=O)NCCNC(=O)[C@H](CS(=O)(=O)O)NC(=O)CC[C@H](C(=O)[O-])N2CCN(CC(=O)[O-])CCN(CC(=O)[O-])CC2)cc(C)c1S(=O)(=O)N[C@@H](CNC(=O)CCCCc1ccc2c(n1)NCCC2)C(=O)O.[67Ga+3] [[^67Ga]-(compound B)]
- radiochemical purity immediately after preparation and after 5.5 hours at room temperature ([2]; 5.5 hours): ≥ 95%

The next lines start with results.

- Radioactivity concentration in tumor After 4 hours [1]: 12.52 % ID/g
- Radioactivity concentration in tumor After 24 hours [1]: 15.29 % ID/g
- Absorbed dose Brain [5]: 1.96 mGy/MBq
- Absorbed dose Kidney [5]: 14.7 mGy/MBq
- Absorbed dose Liver [5]: 1.12 mGy/MBq
- Absorbed dose Lung [5]: 1.35 mGy/MBq
- Absorbed dose Red marrow [5]: 0.06 mGy/MBq
- Absorbed dose Small intestine [5]: 0.87 mGy/MBq
- Absorbed dose Whole body [5]: 0.27 mGy/MBq
- radiochemical purity immediately after preparation and after 24 hours at room temperature [2]: ≥ 95%
SMILES: Cc1cc(OCCCC(=O)NCCNC(=O)C(CS(=O)(=O)O)NC(=O)CN2CCN(CC(=O)[O-])CCN(CC(=O)[O-])CCN(CC(=O)[O-])CC2)cc(C)c1S(=O)(=O)NC(CNC(=O)CCCCc1ccc2c(n1)NCCC2)C(=O)O.[90Y+3] (stereo not shown) [[^90Y]-(compound A)]
- Number of animals showing regression ([3]; 14.8 MBq): 2
- Inhibition rate ([3]; 14.8 MBq): 95%
- Tumor volume 16 days after administration ([3]; 14.8 MBq): 429 ± 188 mm^3
- Tumor volume At the beginning of administration ([3]; 14.8 MBq): 351 ± 72 mm^3
- Number of animals showing regression ([3]; 22.2 MBq): 2
- Inhibition rate ([3]; 22.2 MBq): 97%
- Tumor volume 16 days after administration ([3]; 22.2 MBq): 386 ± 142 mm^3
- Tumor volume At the beginning of administration ([3]; 22.2 MBq): 343 ± 88 mm^3
- Number of animals showing regression ([4]; 22.2 MBq): 1
- Inhibition rate ([4]; 22.2 MBq): 82%
- Tumor volume 13 days after administration ([4]; 22.2 MBq): 882 ± 399 mm^3
- Tumor volume At the beginning of administration ([4]; 22.2 MBq): 755 ± 293 mm^3
- Number of animals showing regression ([4]; 29.6 MBq): 3
- Inhibition rate ([4]; 29.6 MBq): 97%
- Tumor volume 13 days after administration ([4]; 29.6 MBq): 755 ± 313 mm^3
- Tumor volume At the beginning of administration ([4]; 29.6 MBq): 736 ± 264 mm^3

- Radioactivity concentration in tumor After 4 hours [1]: 11.10 % ID/g
- Radioactivity concentration in tumor After 24 hours [1]: 9.62 % ID/g
- AUC ([6]; blood, 98 MBq/9.3 μg): 0.22 % ID · h/mL
- CL ([6]; blood, 98 MBq/9.3 μg): 2.17 mL/min/kg
- Cmax ([6]; blood, 98 MBq/9.3 μg): 0.018 % ID/mL
- T½α ([6]; blood, 98 MBq/9.3 μg): 0.46 h
- T½β ([6]; blood, 98 MBq/9.3 μg): 19.3 h
- Vss ([6]; blood, 98 MBq/9.3 μg): 3.52 L/kg
- integration into the bladder and the gall bladder (planar imaging) ([6]; up to 6 hours after the administration): increased over time
- Absorbed dose Brain [5]: 0.25 mGy/MBq
- Absorbed dose Kidney [5]: 1.19 mGy/MBq
- Absorbed dose Liver [5]: 0.19 mGy/MBq
- Absorbed dose Lung [5]: 0.12 mGy/MBq
- Absorbed dose Red marrow [5]: 0.05 mGy/MBq
- Absorbed dose Small intestine [5]: 0.05 mGy/MBq
- Absorbed dose Whole body [5]: 0.05 mGy/MBq
- radiochemical purity immediately after preparation and after 24 hours at room temperature [2]: ≥ 95%
SMILES: Cc1cc(OCCCC(=O)NCCNC(=O)C(CS(=O)(=O)O)NC(=O)CN2CCN(CC(=O)[O-])CCN(CC(=O)[O-])CCN(CC(=O)[O-])CC2)cc(C)c1S(=O)(=O)NC(CNC(=O)CCCCc1ccc2c(n1)NCCC2)C(=O)O.[111In+3] (stereo not shown) [[^111In]-(compound A)]

- radiochemical purity immediately after preparation and after 3 hours at room temperature ([2]; 3 hours): ≥ 95%
SMILES: Cc1cc(OCCCC(=O)NCCNC(=O)[C@H](CS(=O)(=O)O)NC(=O)CN2CCN(CC(=O)[O-])CCN(CC(=O)[O-])CCN(CC(=O)[O-])CC2)cc(C)c1S(=O)(=O)N[C@@H](CNC(=O)CCCCc1ccc2c(n1)NCCC2)C(=O)O.[177Lu+3] [[^177Lu]-(compound A)]
